Measured values reported in US10975063B2, “Compound, and production method thereof, and methods of treatment using the compound” (ABIVAX, priority 2009, dated 2021).
pIC50: −log10 of the molar value.

Tested on: HIV-1
Test: Inhibition of HIV-1 production (p24 antigen) in infected peripheral blood mononuclear cells (PBMCs)
Type: cell-based, HIV-1 (AdaM) in PBMCs of healthy donors
Settings: Human immunodeficiency virus 1, PBMC; p24 production in HIV infected PBMCs; dose response curves
Procedure: Within this framework, the peripheral blood mononuclear cells (PBMCs) of healthy donors are isolated by centrifugation on a FICOLL gradient. The cells are then cultivated to a density of 2.5×10^6 cells/ml with RPMI medium supplemented with 1% inactivated human AB serum, then incubated at 37° C., 5% CO2 for an additional hour. The peripheral blood mononuclear cells are then recovered and cultivated for two days in RPMI medium supplemented with 10% fetal calf serum.
A standard experiment using 96 plates to test 30 molecules in triplicates including positive and negative controls, is performed as follows:
50 10^6 Ficoll purified PBMCs (10% DMSO 90% FCS) are washed with RPMI 10% FCS and resuspended in 25 ml of RPMI 10% FCS, glutamax containing 1000 U/ml of IL2 and 5 μg/ml PHA. The cells are then incubated for 3 days at 37° C. before to be washed with 50 ml PBS then with 50 ml RPMI 10% FCS. The cells are resuspended in 100 μl of RPMI 10% FCS containing 100 U/ml IL2 and seeded in 96 wells (1.5 10^5 cells/well). Viral infection is performed with 1 ng of AdaM/well. 100 μl of tested molecules at concentration of 10 μM are added to each well. Virus production is determined by p24 antigen immunosorbent assays after 3 and 6 days of infection (Kit Innogenetics). Typically PBMCs are prepared from several healthy donors (around 11 different donors). Dose response curves were then established with selected compounds to determine IC50.

SMILES	pIC50
Cc1ccnc(Nc2ccc3cccc(Cl)c3n2)c1 [Compound 6, (8-Chloro-quinolin-2-yl)-(4-methyl-pyridin-2-yl)-amine]	10.00
Fc1ccc(Nc2ccc3cccc(Cl)c3n2)nc1 [Compound 43, 8-chloro-N-(5-fluoropyridin-2-yl)quinolin-2-amine]	10.00
COc1ccc(Nc2ccc3cccc(Cl)c3n2)cc1 [Compound 77, 8-chloro-N-(4-methoxyphenyl)quinolin-2-amine]	10.30
Cc1cc2ccccc2nc1Nc1ccc(OC(F)(F)F)cc1 [Compound 80, 3-methyl-N-[4-(trifluoromethoxy)phenyl]quinolin-2-amine]	9.00
FC(F)(F)Oc1ccc(Nc2ccc3cccc(Cl)c3n2)cc1 [Compound 90, 8-chloro-N-[4-(trifluoromethoxy)phenyl]quinolin-2-amine]	10.00
Clc1cccc2ccc(Nc3cnccn3)nc12 [Compound 112, 8-chloro-N-(pyrazin-2-yl)quinolin-2-amine]	10.00

Same assay, conditions: tested molecules at 10 μM; p24 after 3 and 6 days of infection; number of donors with inhibition out of donors tested

SMILES	Inhibition of p24 production in HIV infected PBMCs from different donors
Fc1ccc(Nc2ccc3cccc(Cl)c3n2)nc1 [Compound 43, 8-chloro-N-(5-fluoropyridin-2-yl)quinolin-2-amine]	8 out of 10 donnors
Cc1cccc(Nc2nc3ccccc3cc2C)n1 [Compound 46, 3-methyl-N-(6-methylpyridin-2-yl)quinolin-2-amine]	4 out of 4 donnors
CCc1cccc(Nc2ccc3cccc(Cl)c3n2)n1 [Compound 50, 8-chloro-N-(6-ethylpyridin-2-yl)quinolin-2-amine]	4 out of 4 donnors
Cc1ccnc(Nc2ccc3c([N+](=O)[O-])cccc3n2)c1 [Compound 64, N-(4-methylpyridin-2-yl)-5-nitroquinolin-2-amine]	5 out of 5 donnors
FC(F)(F)c1ccnc(Nc2ccc3cccc(Cl)c3n2)c1 [Compound 68, 8-chloro-N-[4-(trifluoromethyl)pyridin-2-yl]quinolin-2-amine]	4 out of 4 donnors
Oc1cccnc1Nc1ccc2cccc(Cl)c2n1 [Compound 69, 2-[(8-chloroquinolin-2-yl)amino]pyridin-3-ol]	4 out of 4 donnors
FC(F)(F)c1cccc(Nc2ccc3cccc(Cl)c3n2)n1 [Compound 70, 8-chloro-N-[6-(trifluoromethyl)pyridin-2-yl]quinolin-2-amine]	4 out of 4 donnors
Fc1ccc(Nc2ccc3cc(Cl)ccc3n2)nc1 [Compound 71, 6-chloro-N-(5-fluoropyridin-2-yl)quinolin-2-amine]	4 out of 4 donnors
CCc1cccc(Nc2nc3ccccc3cc2C)n1 [Compound 72, N-(6-ethylpyridin-2-yl)-3-methylquinolin-2-amine]	4 out of 4 donnors
Cc1cc2ccccc2nc1Nc1ccc(F)cn1 [Compound 73, N-(5-fluoropyridin-2-yl)-3-methylquinolin-2-amine]	4 out of 4 donnors
Cc1cc2ccccc2nc1Nc1ccc(C(F)(F)F)cn1 [Compound 74, 3-methyl-N-[5-(trifluoromethyl)pyridin-2-yl]quinolin-2-amine]	4 out of 4 donnors
CN(C)c1ccc(Nc2ccc3cccc(Cl)c3n2)cc1 [Compound 75, 4-N-(8-chloroquinolin-2-yl)-1-N,1-N-dimethylbenzene-1,4-diamine]	6 out of 7 donnors
COc1ccc(Nc2ccc3cccc(Cl)c3n2)cc1 [Compound 77, 8-chloro-N-(4-methoxyphenyl)quinolin-2-amine]	11 out of 13 donnors
Cc1cc(Nc2ccc(OC(F)(F)F)cc2)nc2ccccc12 [Compound 78, 4-methyl-N-[4-(trifluoromethoxy)phenyl]quinolin-2-amine]	7 out of 8 donnors
COc1ccc(Nc2nc3ccccc3cc2C)cc1 [Compound 79, N-(4-methoxyphenyl)-3-methylquinolin-2-amine]	7 out of 8 donnors
Cc1cc2ccccc2nc1Nc1ccc(OC(F)(F)F)cc1 [Compound 80, 3-methyl-N-[4-(trifluoromethoxy)phenyl]quinolin-2-amine]	7 out of 8 donnors
Cc1cc2ccccc2nc1Nc1ccc(N(C)C)cc1 [Compound 81, 1-N,1-N-dimethyl-4-N-(3-methylquinolin-2-yl)benzene-1,4-diamine]	4 out of 4 donnors
FC(F)(F)Oc1cccc(Nc2ccc3cccc(Cl)c3n2)c1 [Compound 87, 8-chloro-N-[3-(trifluoromethoxy)phenyl]quinolin-2-amine]	4 out of 4 donnors
Fc1cccc(Nc2ccc3cccc(Cl)c3n2)c1 [Compound 88, 8-chloro-N-(3-fluorophenyl)quinolin-2-amine]	4 out of 4 donnors
FC(F)(F)Oc1ccc(Nc2ccc3cccc(Cl)c3n2)cc1 [Compound 90, 8-chloro-N-[4-(trifluoromethoxy)phenyl]quinolin-2-amine]	8 out of 10 donnors
Cc1cc2ccccc2nc1Nc1cccc(OC(F)(F)F)c1 [Compound 92, 3-methyl-N-[3-(trifluoromethoxy)phenyl]quinolin-2-amine]	3 out of 5 donnors
FC(F)(F)Oc1ccc(Nc2ccc3cc(Cl)ccc3n2)cc1 [Compound 96, 6-chloro-N-(4-(trifluoromethoxy)phenyl)quinolin-2-amine]	5 out of 6 donnors
FC(F)(F)Oc1ccc(Nc2ccc3cccc(Cl)c3n2)cc1Cl [Compound 104, 8-chloro-N-[3-chloro-4-(trifluoromethoxy)phenyl]quinolin-2-amine]	4 out of 4 donnors
Clc1cccc2ccc(Nc3cnccn3)nc12 [Compound 112, 8-chloro-N-(pyrazin-2-yl)quinolin-2-amine]	12 out of 13 donnors
Cc1ccnc(Nc2nc3ccccc3nc2C(F)(F)F)c1 [Compound 139, N-(4-methylpyridin-2-yl)-3-(trifluoromethyl)quinoxalin-2-amine]	4 out of 4 donnors
Cc1c(Cl)cnc(Nc2cnc3ccccc3n2)c1Cl [Compound 140, N-(3,5-dichloro-4-methylpyridin-2-yl)quinoxalin-2-amine]	4 out of 4 donnors
Cc1ccnc(Nc2cnc3ccccc3n2)c1[N+](=O)[O-] [Compound 141, N-(4-methyl-3-nitropyridin-2-yl)quinoxalin-2-amine]	4 out of 4 donnors
